Source: patent US20050032243A1, “Method and apparatus for rapid determination of ligand-protein binding using charcoal adsorption” (priority 2001, published 2005)
One block for each molecule: values may come before it.

Legend:
HSA = conditions: literature reference value; cited from earlier work
[1] = target: T1, human serum albumin (HSA) (Homo sapiens, UniProt P02768); experiment: Extent of DCC adsorption as a function of unbound fraction (HSA dilutions, ultrafiltration)
Procedure: Solutions were allowed to incubate at room temperature for 30 minutes and 200 μl samples were loaded onto the DCC cartridge. Elution was initiated and samples collected under vacuum at 5, 10 and 60 seconds.
(§1) Ultrafiltration Experiments. […] Samples (0.5 ml) were centrifuged (1500×g; 3 minutes) at 25° C.
0.1 μCi/ml) in isotonic PBS and dilutions of a 40 mg/ml HSA solution were prepared. Solutions were allowed to incubate at room temperature for 30 minutes and 200 μl samples were loaded onto the DCC cartridge. Elution was initiated and samples were collected under vacuum at 1 second and at 60 seconds. Adsorption of each ligand also was evaluated after 2 hours of DCC exposure.
as §1
Evaluation of Alternative HSA Site I-Specific Ligands.
The relationship between the extent of adsorption and the unbound fraction for each ligand can be described by Equation 1. y=yo+a(1−e^−bx) Equation 1

[2] = target: T1, human serum albumin (HSA); experiment: Time course of ligand adsorption in packed-bed DCC cartridge in the presence of HSA; conditions: HSA 40 mg/ml, at termination of experiment (5 minutes)
[3] = 1 minute DCC exposure, mean ± SE

T1 sequence (P02768 25-609): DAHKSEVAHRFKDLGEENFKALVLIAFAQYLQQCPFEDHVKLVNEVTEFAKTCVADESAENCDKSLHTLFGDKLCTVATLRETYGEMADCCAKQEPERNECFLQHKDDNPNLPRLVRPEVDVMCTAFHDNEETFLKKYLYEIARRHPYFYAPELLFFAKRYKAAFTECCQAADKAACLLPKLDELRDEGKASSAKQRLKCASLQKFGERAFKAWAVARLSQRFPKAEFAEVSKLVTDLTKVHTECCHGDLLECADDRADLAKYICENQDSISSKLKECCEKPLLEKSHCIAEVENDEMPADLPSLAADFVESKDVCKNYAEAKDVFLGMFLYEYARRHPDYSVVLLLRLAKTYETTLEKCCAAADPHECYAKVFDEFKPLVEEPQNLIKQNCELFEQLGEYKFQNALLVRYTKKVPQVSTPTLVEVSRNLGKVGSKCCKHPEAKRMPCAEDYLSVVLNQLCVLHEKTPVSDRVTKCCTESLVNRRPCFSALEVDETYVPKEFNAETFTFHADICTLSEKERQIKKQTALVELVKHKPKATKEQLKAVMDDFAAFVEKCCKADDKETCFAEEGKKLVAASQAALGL

SMILES: C[C@H]1O[C@@H](O[C@H]2[C@@H](O)C[C@H](O[C@H]3[C@@H](O)C[C@H](O[C@H]4CC[C@@]5(C)[C@H](CC[C@@H]6[C@@H]5CC[C@]5(C)[C@@H](C7=CC(=O)OC7)CC[C@]65O)C4)O[C@@H]3C)O[C@@H]2C)C[C@H](O)[C@@H]1O [[^3H]-DIGT, digitoxin]
UNBOUND FRACTION (HSA): 0.05 | Yo (intercept of Equation 1, extent of adsorption at unbound fraction 0) [1, 3]: 0 | a (empirical parameter of Equation 1) [1, 3]: 95.6 ± 0.3 | b (empirical parameter of Equation 1) [1, 3]: 29.5 ± 0.7 | DCC adsorption as unbound fraction approached 0.2 ([1]; 1 minute of charcoal exposure): nearly complete | adsorption to DCC in the presence of HSA [2]: ~100%

adsorption after 1 minute of exposure to DCC, restricted or not [1]: not restricted
SMILES: O=C1NC(=O)C(c2ccccc2)(c2ccccc2)N1 [[^3H]-DPH, diphenylhydantion]
UNBOUND FRACTION (HSA): 0.12

SMILES: CC(C)NCC(O)COc1cccc2ccccc12 (stereo not drawn) [[^3H]-PRO, propanonol]
UNBOUND FRACTION (HSA): 0.13

SMILES: N[C@@H](Cc1c[nH]c2ccccc12)C(=O)O [[^3H]-TRP, L-tryptophan]
UNBOUND FRACTION (HSA): 0.5

a (empirical parameter of Equation 1) [1]: 82.9 ± 8.6 | b (empirical parameter of Equation 1) [1]: 1.5 ± 0.4 | Yo (intercept of Equation 1, extent of adsorption at unbound fraction 0) ([1]; human): 27.0 ± 4.1 | fraction unbound at 10 mg/ml ([1]; human): ~0.8
SMILES: CCCC(CCC)C(=O)O [[^3H]-VPA, valproic acid, valproate]
UNBOUND FRACTION (HSA): 0.1
